Test results taken from ChEMBL document CHEMBL5226379, “Hypouricemic Actions of the Pericarp of Mangosteen in Vitro and in Vivo” (J Nat Prod, 2023).
Active and inactive are the calls of the source. The calls are words filed in the database; no cut-off is given here.

Columns and labels:
[1] = Acute toxicity in mouse assessed as change in body weight at 50 g/Kg, IG measured for 14 days; conditions: in vivo, po, 50000 mg/kg, 336 h, time 14 day
Rattus norvegicus [2] = experiment: Anti-hyperuricemic activity against potassium oxonate-induced hyperuricemic Sprague-Dawley rat model assessed as urine volume at 1 mg/kg, po pre-administered via gavage twice daily for 5 times followed by potassium oxonate injection for 1 hrs prior to last dose and measured after 3 hrs; type: functional; conditions: time 123 hrs
Rattus norvegicus [3] = experiment: (§1) Anti-hyperuricemic activity against potassium oxonate-induced hyperuricemic Sprague-Dawley rat model assessed as urinary urate level at 4 mg/kg, po pre-administered via gavage twice daily for 5 times followed by potassium oxonate injection for 1 hrs prior to last dose and measured after 3 hrs; type: functional; conditions: time 123 hrs
[4] = Acute toxicity in mouse assessed as mortality at 50 g/Kg, IG measured for 14 days; conditions: in vivo, po, 50000 mg/kg, 336 h, time 14 day
[5] = biological target: T1, Solute carrier family 22 member 12 (Homo sapiens, UniProt Q96S37); experiment: Inhibition of human URAT1-mediated [8-14C]uric acid uptake expressed in HEK293 cells using [8-14C]uric acid as substrate by liquid scintillation counter analysis; type: cell-based
T1 sequence (Q96S37 whole entry): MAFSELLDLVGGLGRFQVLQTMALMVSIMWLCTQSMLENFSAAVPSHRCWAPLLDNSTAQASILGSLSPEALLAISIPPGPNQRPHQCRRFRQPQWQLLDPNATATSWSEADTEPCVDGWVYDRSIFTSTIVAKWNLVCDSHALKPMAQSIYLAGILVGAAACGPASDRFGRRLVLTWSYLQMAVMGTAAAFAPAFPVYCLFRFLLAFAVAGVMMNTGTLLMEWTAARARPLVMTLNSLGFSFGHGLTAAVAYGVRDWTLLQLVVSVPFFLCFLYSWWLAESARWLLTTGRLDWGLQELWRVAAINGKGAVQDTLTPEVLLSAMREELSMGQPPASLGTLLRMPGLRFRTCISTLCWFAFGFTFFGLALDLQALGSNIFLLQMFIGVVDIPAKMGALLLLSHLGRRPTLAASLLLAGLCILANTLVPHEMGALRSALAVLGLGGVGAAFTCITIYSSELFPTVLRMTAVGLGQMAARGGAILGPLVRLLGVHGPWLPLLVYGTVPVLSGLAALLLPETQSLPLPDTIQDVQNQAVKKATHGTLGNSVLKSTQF

Rattus norvegicus [6] = experiment: (§2) Anti-hyperuricemic activity against potassium oxonate-induced hyperuricemic Sprague-Dawley rat model assessed as ratio of urinary urate to urinary creatinine at 1 mg/kg, po pre-administered via gavage twice daily for 5 times followed by potassium oxonate injection for 1 hrs prior to last dose and measured after 3 hrs; type: functional; conditions: time 123 hrs
Rattus norvegicus [7] = experiment: (§3) Anti-hyperuricemic activity against potassium oxonate-induced hyperuricemic Sprague-Dawley rat model assessed as urinary urate at 2 mg/kg, po pre-administered via gavage twice daily for 5 times followed by potassium oxonate injection for 1 hrs prior to last dose and measured after 3 hrs; type: functional; conditions: time 123 hrs
Mus musculus [8] = experiment: Hypouricemic activity in potassium oxonate-induced hyperuricemic Kunming mouse model assessed as decrease in serum uric acid level at 4 mg/kg, IG by phosphotungstic acid method; type: functional, organism-based; conditions: time <= 6.0 hrs, TDE = time-dependent effect
Rattus norvegicus [9] = experiment: as §1, with “excretion of” for “urinary”, “per volume of glomerular filtration measured per body surface area of 0.0311 m2” for “level”; type: functional; conditions: time 123 hrs
Rattus norvegicus [10] = experiment: as §2, with “clearance” for “ratio”, “of” for “of urinary urate to urinary”, “creatinine measured per body surface area of 0.0311 m2” for “creatinine”; type: functional; conditions: time 123 hrs
[11] = biological target: T2, Xanthine dehydrogenase/oxidase (Homo sapiens, UniProt P47989); experiment: Inhibition of XOD (unknown origin) using xanthine as substrate assessed as inhibition of uric acid generation at 100 mg/L preincubated for 15 mins followed by xanthine addition and measured by spectrophotometric analysis relative to control
T2 sequence (P47989 whole entry): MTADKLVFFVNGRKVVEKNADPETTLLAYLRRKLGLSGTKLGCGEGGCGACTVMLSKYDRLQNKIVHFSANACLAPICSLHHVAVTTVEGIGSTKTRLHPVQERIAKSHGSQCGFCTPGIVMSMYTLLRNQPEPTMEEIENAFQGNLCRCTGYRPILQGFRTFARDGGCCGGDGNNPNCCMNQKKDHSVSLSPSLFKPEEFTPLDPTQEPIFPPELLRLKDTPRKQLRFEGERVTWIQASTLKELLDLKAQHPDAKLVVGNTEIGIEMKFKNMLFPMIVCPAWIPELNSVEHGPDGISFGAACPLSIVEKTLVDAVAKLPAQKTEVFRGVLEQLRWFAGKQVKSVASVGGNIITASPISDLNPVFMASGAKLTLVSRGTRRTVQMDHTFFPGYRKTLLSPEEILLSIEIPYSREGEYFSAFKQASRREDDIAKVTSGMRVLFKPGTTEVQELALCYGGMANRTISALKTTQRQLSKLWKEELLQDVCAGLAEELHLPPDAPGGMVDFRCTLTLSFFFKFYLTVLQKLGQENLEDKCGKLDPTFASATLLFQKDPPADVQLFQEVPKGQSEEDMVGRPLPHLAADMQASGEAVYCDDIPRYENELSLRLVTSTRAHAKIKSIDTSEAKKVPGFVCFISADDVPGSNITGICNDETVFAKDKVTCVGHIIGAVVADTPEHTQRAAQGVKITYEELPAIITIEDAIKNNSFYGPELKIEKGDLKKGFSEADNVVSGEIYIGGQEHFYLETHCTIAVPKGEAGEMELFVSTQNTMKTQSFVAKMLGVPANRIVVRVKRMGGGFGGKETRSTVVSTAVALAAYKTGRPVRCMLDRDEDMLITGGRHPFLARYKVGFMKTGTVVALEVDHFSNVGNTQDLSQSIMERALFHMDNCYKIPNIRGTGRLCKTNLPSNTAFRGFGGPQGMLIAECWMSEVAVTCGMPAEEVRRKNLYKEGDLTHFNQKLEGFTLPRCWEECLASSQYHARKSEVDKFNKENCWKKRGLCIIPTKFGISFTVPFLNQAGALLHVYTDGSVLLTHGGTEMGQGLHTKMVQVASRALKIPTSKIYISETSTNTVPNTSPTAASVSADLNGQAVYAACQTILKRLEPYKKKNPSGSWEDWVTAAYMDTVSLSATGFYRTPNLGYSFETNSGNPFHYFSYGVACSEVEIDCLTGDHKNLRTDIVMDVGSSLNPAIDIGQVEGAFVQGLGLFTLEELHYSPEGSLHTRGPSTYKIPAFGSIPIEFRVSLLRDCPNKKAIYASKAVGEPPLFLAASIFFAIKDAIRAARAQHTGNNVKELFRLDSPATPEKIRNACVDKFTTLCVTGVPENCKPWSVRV

Homo sapiens = organism: Homo sapiens; experiment: Inhibition of uricase (unknown origin) using uric acid as substrate at 37.5 mg/L preincubated with compounds for 15 mins followed by uric acid addition
Rattus norvegicus [12] = experiment: as §3, with “clearance of” for “urinary”, “urate measured per body surface area of 0.0311 m2” for “urate”; type: functional; conditions: time 123 hrs
Rattus norvegicus [13] = experiment: as §1, with “clearance of” for “urinary”, “measured per body surface area of 0.0311 m2” for “level”; type: functional; conditions: time 123 hrs
Rattus norvegicus [14] = experiment: Anti-hyperuricemic activity against potassium oxonate-induced hyperuricemic Sprague-Dawley rat model assessed as increase in urinary urate level at 2 mg/kg, po pre-administered via gavage twice daily for 5 times followed by potassium oxonate injection for 1 hrs prior to last dose and measured after 3 hrs relative to control; type: functional; conditions: time 123 hrs
Mus musculus [15] = experiment: Hypouricemic activity in potassium oxonate-induced hyperuricemic Kunming mouse model assessed as decrease in serum uric acid level at 5 mg/kg, IG pre-administered via gavage twice daily for 5 times followed by potassium oxonate injection for 1 hrs prior to last dose by phosphotungstic acid method; type: functional; conditions: time 5.0 day
Mus musculus [16] = experiment: Hypouricemic activity in potassium oxonate-induced hyperuricemic Kunming mouse model assessed as decrease in serum uric acid level at 4 mg/kg, IG pre-administered with potassium oxonate for one hour followed by compound treatment and measured after 2 hrs by phosphotungstic acid method relative to control; type: functional; set-up: scale not given: the % may be the effect or the level left
[17] = biological target: T2, Xanthine dehydrogenase/oxidase; experiment: Inhibition of XOD (unknown origin) using xanthine as substrate assessed as inhibition of uric acid generation at 150 mg/L preincubated for 15 mins followed by xanthine addition and measured by spectrophotometric analysis relative to control
Rattus norvegicus [18] = experiment: Anti-hyperuricemic activity against potassium oxonate-induced hyperuricemic Sprague-Dawley rat model assessed as serum urea nitrogen level at 4 mg/kg, po pre-administered via gavage twice daily for 5 times followed by potassium oxonate injection for 1 hrs prior to last dose and measured after 3 hrs; type: functional; conditions: time 123 hrs
Rattus norvegicus [19] = experiment: as §2, with “glomerular load” for “ratio”, “of” for “of urinary”, “measured per body surface area of 0.0311 m2” for “to urinary creatinine”; type: functional; conditions: time 123 hrs
Rattus norvegicus [20] = experiment: Anti-hyperuricemic activity against potassium oxonate-induced hyperuricemic Sprague-Dawley rat model assessed as urinary urate level at 2 mg/kg, po pre-administered via gavage twice daily for 5 times followed by potassium oxonate injection for 1 hrs prior to last dose and measured after 3 hrs; type: functional; conditions: time 123 hrs
[21] = biological target: T2, Xanthine dehydrogenase/oxidase; experiment: Inhibition of XOD (unknown origin) using xanthine as substrate assessed as inhibition of uric acid generation at 50 mg/L preincubated for 15 mins followed by xanthine addition and measured by spectrophotometric analysis relative to control
[22] = Acute toxicity in mouse assessed as behavioral changes at 50 g/Kg, IG measured for 14 days; conditions: in vivo, po, 50000 mg/kg, 336 h, time 14 day
Rattus norvegicus [23] = experiment: Anti-hyperuricemic activity against potassium oxonate-induced hyperuricemic Sprague-Dawley rat model assessed as urinary creatinine level at 1 mg/kg, po pre-administered via gavage twice daily for 5 times followed by potassium oxonate injection for 1 hrs prior to last dose and measured after 3 hrs; type: functional; conditions: time 123 hrs
Mus musculus [24] = experiment: Anti-hyperouricemic activity in uric acid-induced hyperuricemic Kunming mouse model assessed as decrease in serum uric acid level at 2 to 8 mg/kg, IG pre-administered via gavage twice daily for 5 times followed by uric acid injection for 30 mins prior to last dose by phosphotungstic acid method; type: functional, organism-based; conditions: dose 2-8 mg/kg, time 5.0 day
Mus musculus [25] = experiment: Anti-hyperouricemic activity in uric acid-induced hyperuricemic Kunming mouse model assessed as decrease in serum uric acid level at 4 mg/kg, IG pre-administered with uric acid for 30 mins followed by compound treatment and measured after 2 hrs by phosphotungstic acid method; type: functional, organism-based
Rattus norvegicus [26] = experiment: Anti-hyperuricemic activity against potassium oxonate-induced hyperuricemic Sprague-Dawley rat model assessed as serum creatinine level at 4 mg/kg, po pre-administered via gavage twice daily for 5 times followed by potassium oxonate injection for 1 hrs prior to last dose and measured after 3 hrs; type: functional; conditions: time 123 hrs

For `COc1c(O)cc2oc3cc(O)c(CC=C(C)C)c(O)c3c(=O)c2c1CC=C(C)C` [MANGOSTIN], the Activity [1] was “Non-Toxic”, the Activity (Rattus norvegicus [2]) was 6.8 mL and the Activity (Rattus norvegicus [3]) was 2.4 mmol/L. The Activity [4] was “Non-Toxic”, the IC50 [5] was 58.9 µM and the Ratio (Rattus norvegicus [6]) was 2.7. For the same compound, the Activity (Rattus norvegicus [7]) was 465 µmol, the Activity (Mus musculus [8]) was “Tde” and the Activity (Rattus norvegicus [9]) was 5.3 µmol/L. It also gave an Activity (Rattus norvegicus [10]) of 21.4 mL/min, an inhibition at 100 µg/mL [11] of 1.4% and an inhibition (Homo sapiens) of 1.4%. It also gave an Activity (Rattus norvegicus [12]) of 11.2 mL/min, an Activity (Rattus norvegicus [13]) of 14 mL/min and an Activity (Rattus norvegicus [14]) of 42%. For the same compound, the Activity (Mus musculus [15]) was “Active”, the Activity (Mus musculus [16]) was 63% and the inhibition at 150 µg/mL [17] was 1.4%. For the same compound, the Activity (Rattus norvegicus [18]) was 10.1 mmol/L, the Activity (Rattus norvegicus [19]) was 4.4 µmol/min and the Activity (Rattus norvegicus [20]) was 2.6 mmol/L. For the same compound, the inhibition at 50 µg/mL [21] was 4.9%, the Activity [22] was “Non-Toxic” and the Activity (Rattus norvegicus [23]) was 0.9 mmol/L. For the same compound, the Activity (Mus musculus [24]) was “Active”, the Activity (Mus musculus [25]) was “Active” and the Activity (Rattus norvegicus [26]) was 55 µmol/L.
